Source: ChEMBL document CHEMBL4665747, “Glycosides and Glycoconjugates of the Diterpenoid Isosteviol with a 1,2,3-Triazolyl Moiety: Synthesis and Cytotoxicity Evaluation” (J Nat Prod, 2020)
Active and inactive are the calls of the source. The rule behind the calls is not given here.

Legend:
M-HeLa [1] = test: Induction of apoptosis in human HelaM cells assessed as necrotic cells at 25 uM after 24 hrs by V-FITC/propidium iodide staining-based flow cytometric analysis (reference value: 4.55 %); format: functional
M-HeLa [2] = test: Induction of apoptosis in human HelaM cells assessed as early apoptotic cells at 10 uM after 24 hrs by V-FITC/propidium iodide staining-based flow cytometric analysis (reference value: 1.5 %); format: functional
MCF7 = test: Cytotoxicity against human MCF7 cells assessed as reduction in cell viability after 24 hrs by DAPI staining-based fluorescence assay; format: functional; settings: MCF7, 24 h
M-HeLa [3] = test: Induction of apoptosis in human HelaM cells assessed as early apoptotic cells at 25 uM after 24 hrs by V-FITC/propidium iodide staining-based flow cytometric analysis (reference value: 1.5 %); format: functional
M-HeLa [4] = test: Induction of apoptosis in human HelaM cells assessed as viable cells at 25 uM after 24 hrs by V-FITC/propidium iodide staining-based flow cytometric analysis (reference value: 93.33 %); format: functional; settings: read-out: Activity
M-HeLa [5] = test: Induction of apoptosis in human HelaM cells assessed as necrotic cells at 10 uM after 24 hrs by V-FITC/propidium iodide staining-based flow cytometric analysis (reference value: 4.55 %); format: functional
M-HeLa [6] = test: Induction of apoptosis in human HelaM cells assessed as viable cells at 10 uM after 24 hrs by V-FITC/propidium iodide staining-based flow cytometric analysis (reference value: 93.33 %); format: functional; settings: read-out: Activity
M-HeLa [7] = test: Induction of mitochondrial membrane potential loss in human HelaM cells assessed as cell population with intact mitochondrial membrane potential at 10 uM by JC-10 staining-based flow cytometric analysis (reference value: 77.48 %); format: functional
M-HeLa [8] = test: Induction of apoptosis in human HelaM cells assessed as late apoptotic cells at 10 uM after 24 hrs by V-FITC/propidium iodide staining-based flow cytometric analysis (reference value: 0.62 %); format: functional
M-HeLa [9] = test: Induction of mitochondrial membrane potential loss in human HelaM cells assessed as cell population with intact mitochondrial membrane potential at 25 uM by JC-10 staining-based flow cytometric analysis (reference value: 77.48 %); format: functional
WI-38 = test: Cytotoxicity against human WI-38 cells assessed as reduction in cell viability after 24 hrs by DAPI staining-based fluorescence assay; settings: WI-38, 24 h
[10] = Cytotoxicity against human Chang liver cells assessed as reduction in cell viability after 24 hrs by DAPI staining-based fluorescence assay
M-HeLa [11] = test: Cytotoxicity against human HelaM cells assessed as reduction in cell viability after 24 hrs by DAPI staining-based fluorescence assay; format: functional
[12] = Selectivity index, ratio of IC50 for human chang liver cells to IC50 for human HelaM cells
M-HeLa [13] = test: Induction of apoptosis in human HelaM cells assessed as late apoptotic cells at 25 uM after 24 hrs by V-FITC/propidium iodide staining-based flow cytometric analysis (reference value: 0.62 %); format: functional
M-HeLa [14] = test: Induction of mitochondrial membrane potential loss in human HelaM cells assessed as cell population with mitochondrial membrane potential collapse at 10 uM by JC-10 staining-based flow cytometric analysis (reference value: 22.17 %); format: functional
M-HeLa [15] = test: Induction of mitochondrial membrane potential loss in human HelaM cells assessed as cell population with mitochondrial membrane potential collapse at 25 uM by JC-10 staining-based flow cytometric analysis (reference value: 22.17 %); format: functional
M-HeLa [16] = test: Induction of apoptosis in human HelaM cells assessed as increase in caspase-9 level at 10 uM incubated for 24 hrs; format: functional, cell-based
M-HeLa [17] = test: Induction of apoptosis in human HelaM cells assessed as increase in p53 level at 10 uM incubated for 24 hrs; format: functional, cell-based
M-HeLa [18] = test: Induction of apoptosis in human HelaM cells assessed as increase in caspase-8 level at 10 uM incubated for 24 hrs; format: functional, cell-based
M-HeLa [19] = test: Induction of apoptosis in human HelaM cells assessed as increase in Akt level at 10 uM incubated for 24 hrs; format: functional, cell-based
M-HeLa [20] = test: Induction of apoptosis in human HelaM cells assessed as increase in Bad level at 10 uM incubated for 24 hrs; format: functional, cell-based
M-HeLa [21] = test: Induction of apoptosis in human HelaM cells assessed as increase in Bcl2 level at 10 uM incubated for 24 hrs; format: functional, cell-based
M-HeLa [22] = test: Induction of apoptosis in human HelaM cells assessed as increase in JNK level at 10 uM incubated for 24 hrs; format: functional, cell-based

Row | Compound | Activity (M-HeLa [1]) [%] | Activity (M-HeLa [2]) [%] | IC50 (MCF7) [µM] | Activity (M-HeLa [3]) [%] | viability at 25 µM (M-HeLa [4]) [%] | Activity (M-HeLa [5]) [%] | viability at 10 µM (M-HeLa [6]) [%] | Activity (M-HeLa [7]) [%] | Activity (M-HeLa [8]) [%] | Activity (M-HeLa [9]) [%] | IC50 (WI-38) [µM] | IC50 [10] [µM] | IC50 (M-HeLa [11]) [µM] | Ratio IC50 [12] | Activity (M-HeLa [13]) [%] | Activity (M-HeLa [14]) [%] | Activity (M-HeLa [15]) [%] | other results
1 | CC(=O)OC[C@H]1O[C@@H](n2cc(COC(=O)[C@]3(C)CCC[C@@]4(C)[C@@H]5CC[C@@]6(C)C[C@]5(CC[C@@H]43)CC6=O)nn2)[C@H](OC(C)=O)[C@@H]1OC(C)=O | 0 | 11.71 | > 10 | 22.44 | 53.9 | 0.03 | 67.3 | 55.17 | 20.94 | 9.86 | > 100 | > 100 | 1.9 | >53 | 23.66 | 44.73 | 90.09 | 
2 | CC(=O)OC[C@H]1O[C@@H](n2cc(COC(=O)[C@]3(C)CCC[C@@]4(C)[C@@H]5CC[C@@]6(C)C[C@]5(CC[C@@H]43)CC6=O)nn2)[C@H](OC(C)=O)[C@@H](OC(C)=O)[C@H]1OC(C)=O | 1.26 | 7.95 | > 10 | 9.53 | 77.7 | 0.91 | 82 | 59.16 | 9.09 | 15.35 | 69.7 | > 100 | 1.8 | >56 | 11.5 | 40.74 | 84.65 | Activity (M-HeLa [16]): Active; Activity (M-HeLa [17]): Active; Activity (M-HeLa [18]): Active; Activity (M-HeLa [19]): Active; Activity (M-HeLa [20]): Active; Activity (M-HeLa [21]): Active; Activity (M-HeLa [22]): Active
3 | CC(=O)O[C@@H]1[C@H](OC(C)=O)[C@H](OC(C)=O)CO[C@H]1n1cc(COC(=O)[C@]2(C)CCC[C@@]3(C)[C@@H]4CC[C@@]5(C)C[C@]4(CC[C@@H]32)CC5=O)nn1 | 0.66 | 9.53 | > 10 | 8.57 | 79.2 | 0.34 | 81.9 | 59.62 | 8.21 | 13.46 | 40 | > 100 | 1.7 | >59 | 11.59 | 40.23 | 86.44 | 
4 | COc1cccc2c1C(=O)c1c(O)c3c(c(O)c1C2=O)C[C@@](O)(C(=O)CO)C[C@@H]3O[C@H]1C[C@H](N)[C@H](O)[C@H](C)O1 [DOXORUBICIN] |  |  |  |  |  |  |  |  |  |  |  | 3 |  |  |  |  |  | 
5 | CC(=O)OC[C@H]1O[C@@H](n2cc(COC(=O)[C@]3(C)CCC[C@@]4(C)[C@@H]5CC[C@@]6(C)C[C@]5(CC[C@@H]43)CC6=O)nn2)[C@H](OC(C)=O)[C@@H](OC(C)=O)[C@@H]1OC(C)=O |  |  | > 10 |  |  |  |  |  |  |  | 36 | 68.3 | 8 | 8.5 |  |  |  | 
